Experimental data published in ChEMBL document CHEMBL1143756, “Alpha-substituted N-(4-tert-butylbenzyl)-N'-[4-(methylsulfonylamino)benzyl]thiourea analogues as potent and stereospecific TRPV1 antagonists” (Bioorg Med Chem, 2007).
pKi: −log10 of the molar value.

Key:
[1] = target: T1, Transient receptor potential cation channel subfamily V member 1 (Rattus norvegicus, UniProt O35433); assay: Displacement of [3H]RTX from rat TRPV1 receptor expressed in CHO cells; assay type: cell-based
[2] = target: T1, Transient receptor potential cation channel subfamily V member 1; assay: Antagonist activity at rat TRPV1 receptor expressed in CHO cells by Ca2+ uptake assay
[3] = target: Transient receptor potential cation channel subfamily V member 1 (Rattus norvegicus) (UniProt O35433); assay: Agonist activity at rat TRPV1 receptor expressed in CHO cells by Ca2+ uptake assay; assay type: functional, cell-based
Chain of Transient receptor potential cation channel subfamily V member 1 (Rattus norvegicus) (O35433 whole entry): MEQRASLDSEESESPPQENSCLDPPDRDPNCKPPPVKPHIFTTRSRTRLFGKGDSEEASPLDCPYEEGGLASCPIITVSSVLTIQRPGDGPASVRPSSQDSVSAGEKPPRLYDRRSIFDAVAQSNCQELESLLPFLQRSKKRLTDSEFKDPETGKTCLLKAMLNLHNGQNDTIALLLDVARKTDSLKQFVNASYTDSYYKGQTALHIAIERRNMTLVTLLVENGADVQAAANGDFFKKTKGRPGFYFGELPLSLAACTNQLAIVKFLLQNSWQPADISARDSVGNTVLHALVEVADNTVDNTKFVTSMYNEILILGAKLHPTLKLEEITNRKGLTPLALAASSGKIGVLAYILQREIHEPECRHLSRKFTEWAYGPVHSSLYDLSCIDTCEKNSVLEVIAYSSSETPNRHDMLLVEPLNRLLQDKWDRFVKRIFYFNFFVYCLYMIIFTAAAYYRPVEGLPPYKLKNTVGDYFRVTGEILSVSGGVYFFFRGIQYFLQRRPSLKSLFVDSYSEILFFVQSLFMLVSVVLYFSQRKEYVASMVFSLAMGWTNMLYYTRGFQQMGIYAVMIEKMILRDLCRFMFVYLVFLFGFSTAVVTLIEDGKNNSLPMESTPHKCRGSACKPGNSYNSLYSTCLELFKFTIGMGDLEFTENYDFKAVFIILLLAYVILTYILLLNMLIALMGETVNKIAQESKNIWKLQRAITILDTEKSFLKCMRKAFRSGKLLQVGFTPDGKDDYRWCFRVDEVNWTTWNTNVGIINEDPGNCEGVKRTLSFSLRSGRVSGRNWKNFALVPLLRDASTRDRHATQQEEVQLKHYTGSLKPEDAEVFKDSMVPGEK

T1 sequence (O35433 whole entry): as above

SMILES | pKi [1] | pKi [2] | Activity [3]
C[C@H](NC(=S)NCc1ccc(C(C)(C)C)cc1)c1ccc(NS(C)(=O)=O)c(F)c1 | 5.67 | 5.57 | 
C[C@H](/N=C(\S)NCc1ccc(C(C)(C)C)cc1)c1ccc(NS(C)(=O)=O)cc1 |  |  | 8%
C[C@@H](NC(=S)NCc1ccc(C(C)(C)C)cc1)c1ccc(NS(C)(=O)=O)c(F)c1 |  | 7.43 | 
CN(C)CCCN1c2ccccc2Sc2ccc(Cl)cc21 [CHLORPROMAZINE] | 5.89 | 6.28 | 
C[C@H](NC(=S)NCc1ccc(C(C)(C)C)cc1)c1ccc(NS(C)(=O)=O)cc1 | 5.40 |  | 
CC(NC(=S)NCc1ccc(C(C)(C)C)cc1)c1ccc(NS(C)(=O)=O)cc1 (configuration not stated) | 7.23 | 7.83 | 
CC(C)(C)c1ccc(CNC(=S)NC(C)(C)c2ccc(NS(C)(=O)=O)cc2)cc1 |  | 5.74 | 
COc1cc(CNC(=S)NCc2ccc(C(C)(C)C)cc2)ccc1NS(C)(=O)=O | 7.29 |  | 18%
